Data from patent US8703785B2, “2-aminopyrimidin-4-one and 2-aminopyridine derivatives both having BACE1-inhibiting activity” (Shionogi & Co., Ltd., priority 2008, dated 2014).

How the values were obtained:
[1] = system: Neuroblastoma SH-SY5Y cells (SH/APPwt) with human wild-type β-APP excessively expressed; assay: Measurement of β-amyloid (Aβ) production inhibitory effect in cell; assay type: cell-based; conditions: 24 hours incubation, Amyloid-β 1-40 HTRF
Procedure: Neuroblastoma SH-SY5Y cells (SH/APPwt) with human wild-type β-APP excessively expressed therein were prepared at 8×10^5 cells/mL, and 150 μl portions thereof were inoculated into respective wells of a 96-well culture plate (Falcon). The cells were cultured for 2 hours at 37° C. in a 5% gaseous carbon dioxide incubator. […] Namely, the final DMSO concentration was 1%, and the amount of the cell culture was 200 μl. After the incubation was performed for 24 hours from the addition of the test compound, 100 μl of the culture supernatant was collected from each fraction. The amount of the Aβ in each fraction was measured. The Aβ amount was measured as follows. 10 μl of a homogeneous time resolved fluorescence (HTRF) measurement reagent (Amyloid-β 1-40 peptide; IBA Molecular Holding, S.A.) and 10 μl of the culture supernatant were put into a 384-well half area microplate (black microplate, Costar) and mixed with each other, and then left standing overnight at 4° C. while the light was shielded. Then, the fluorescence intensity (excitation wavelength: 337 nm, measurement wavelength: 620 nm and 665 nm) was measured with a Wallac 1420 multilabel counter (Perkin Elmer life sciences).

CYP3A4 = CYP3A4 (Homo sapiens (Human), UniProt P08684); assay: CYP3A4 fluorescent MBI test; assay type: in vitro ADME; conditions: E. coli-expressing CYP3A4, 7-BFC substrate, pre-reaction 0 or 30 minutes
Chain of CYP3A4 (P08684 whole entry): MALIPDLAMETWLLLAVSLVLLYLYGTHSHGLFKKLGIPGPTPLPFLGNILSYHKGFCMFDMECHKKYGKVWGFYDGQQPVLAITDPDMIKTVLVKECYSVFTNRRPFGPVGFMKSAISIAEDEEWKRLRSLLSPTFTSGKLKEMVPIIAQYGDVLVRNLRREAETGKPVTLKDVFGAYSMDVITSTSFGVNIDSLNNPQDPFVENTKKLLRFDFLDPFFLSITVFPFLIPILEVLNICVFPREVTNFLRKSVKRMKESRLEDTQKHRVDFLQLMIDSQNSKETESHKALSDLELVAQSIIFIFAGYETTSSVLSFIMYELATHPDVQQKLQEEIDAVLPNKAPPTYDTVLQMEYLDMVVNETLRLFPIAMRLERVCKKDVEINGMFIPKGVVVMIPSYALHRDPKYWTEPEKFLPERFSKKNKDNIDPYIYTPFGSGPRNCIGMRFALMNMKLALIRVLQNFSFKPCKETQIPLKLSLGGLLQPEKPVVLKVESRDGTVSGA
Procedure: The CYP3A4 fluorescent MBI test is a test to examine enhancement of CYP3A4 inhibition by metabolic reaction of the compound. Here, E. coli-expressing CYP3A4 was used as an enzyme, and a reaction wherein 7-benzyloxy trifluoromethylcumarin (7-BFC) was debenzylated by the CYP3A4 enzyme into a fluorescent metabolite 7-hydroxytrifluoromethylcumarin (HFC) was employed as an indicator reaction. The reaction conditions were as follows.
Substrate: 5.6 μmol/L 7-BFC
Pre-reaction time: 0 or 30 minutes
Reaction time: 15 minutes
Reaction temperature: 25° C. (room temperature)
CYP3A4 content (E. coli-expressing enzyme): 62.5 pmol/mL at pre-reaction, […] at reaction (10-fold diluted) […]
The enzyme and a test compound solution were added to a K-Pi buffer (pH 7.4) in the aforementioned amounts for the pre-reaction so that a pre-reaction solution was prepared, and this solution was put into a 96-well microplate. […] With respect to each of the microplates on which the indicator reaction was performed, the fluorescence value of the metabolite 7-HFC was measured with a fluorescence plate reader (Ex=420 nm, Em=535 nm). […] The remaining activity (%) at each concentration after adding the test compound solution was calculated, and the IC50 value was calculated from the concentration and inhibition percentage by inverse estimation with the logistic model. […]

Recombinant human BACE-1 = Recombinant human BACE-1 (Homo sapiens (Human), UniProt P56817); assay: Measurement of BACE1 inhibitory activity; assay type: biochemical; conditions: Recombinant human BACE-1 7.4 nM, substrate peptide 18 nM, pH 5.0, 3 hours at 30° C.; read-out: IC50 (BACE1 enzyme activity)
Chain of Recombinant human BACE-1 (P56817 46-501): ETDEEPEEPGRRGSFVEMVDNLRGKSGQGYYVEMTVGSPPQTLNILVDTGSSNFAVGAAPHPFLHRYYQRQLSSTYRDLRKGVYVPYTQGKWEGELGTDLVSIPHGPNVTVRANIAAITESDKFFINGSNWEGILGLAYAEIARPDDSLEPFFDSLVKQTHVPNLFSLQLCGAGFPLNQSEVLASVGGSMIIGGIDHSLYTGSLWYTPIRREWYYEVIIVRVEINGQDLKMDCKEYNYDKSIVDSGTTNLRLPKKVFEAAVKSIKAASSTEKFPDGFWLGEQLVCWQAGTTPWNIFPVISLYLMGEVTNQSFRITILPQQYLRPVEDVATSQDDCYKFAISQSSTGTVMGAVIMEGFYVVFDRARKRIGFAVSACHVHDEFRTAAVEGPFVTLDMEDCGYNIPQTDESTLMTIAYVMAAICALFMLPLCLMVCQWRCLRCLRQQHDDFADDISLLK
Procedure: First, 48.5 μl portions of a solution of substrate peptide (Biotin-XSEVNLDAEFRHDSGC-Eu: X=ε-amino-n-capronic acid, Eu=Europium cryptate) were put into respective wells of a 96-well half area microplate (black microplate, Costar). Then, 0.5 μl of a test compound (DMSO (dimethyl sulfoxide) solution) and 1 μl of Recombinant human BACE-1 (R&D systems) were added to each of the wells, and they were reacted for 3 hours at 30° C. […] The final concentration of the substrate peptide was set to 18 nM, and the final concentration of Recombinant human BACE-1 was set to 7.4 nM. The reaction buffer used was a sodium acetate buffer (50 mM sodium acetate, pH 5.0, 0.008% Triton X-100). After the reaction finished, 50 μl portions of a 8.0 μg/ml solution of Streptavidin-XL665 (CIS bio international) in a phosphate buffer (150 mM K2HPO4—KH2PO4, pH 7.0, 0.008% Triton X-100, 0.8 M KF) were added to the respective wells, and the plate was left standing for 1 hour at 30° C. Thereafter, the fluorescence intensity (excitation wavelength: 320 nm, measurement wavelength: 620 nm and 665 nm) was measured with a Wallac 1420 multilabel counter (Perkin Elmer life sciences). The enzyme activity was determined from the count rate at each measurement wavelength (10000× Count 665/Count 620), and the amount needed to inhibit the enzyme activity by 50% (IC50) was calculated.

hERG (IKr) = hERG (IKr) (Homo sapiens (Human), UniProt Q12809); assay: hERG test; assay type: cell-based; conditions: HEK293 cells expressing hERG channel, pH 7.4, HEK293 cell expressing hERG, compound concentration 5 μM, read-out: inhibitory percentage (IKr maximum tail current)
Chain of hERG (IKr) (Q12809 whole entry): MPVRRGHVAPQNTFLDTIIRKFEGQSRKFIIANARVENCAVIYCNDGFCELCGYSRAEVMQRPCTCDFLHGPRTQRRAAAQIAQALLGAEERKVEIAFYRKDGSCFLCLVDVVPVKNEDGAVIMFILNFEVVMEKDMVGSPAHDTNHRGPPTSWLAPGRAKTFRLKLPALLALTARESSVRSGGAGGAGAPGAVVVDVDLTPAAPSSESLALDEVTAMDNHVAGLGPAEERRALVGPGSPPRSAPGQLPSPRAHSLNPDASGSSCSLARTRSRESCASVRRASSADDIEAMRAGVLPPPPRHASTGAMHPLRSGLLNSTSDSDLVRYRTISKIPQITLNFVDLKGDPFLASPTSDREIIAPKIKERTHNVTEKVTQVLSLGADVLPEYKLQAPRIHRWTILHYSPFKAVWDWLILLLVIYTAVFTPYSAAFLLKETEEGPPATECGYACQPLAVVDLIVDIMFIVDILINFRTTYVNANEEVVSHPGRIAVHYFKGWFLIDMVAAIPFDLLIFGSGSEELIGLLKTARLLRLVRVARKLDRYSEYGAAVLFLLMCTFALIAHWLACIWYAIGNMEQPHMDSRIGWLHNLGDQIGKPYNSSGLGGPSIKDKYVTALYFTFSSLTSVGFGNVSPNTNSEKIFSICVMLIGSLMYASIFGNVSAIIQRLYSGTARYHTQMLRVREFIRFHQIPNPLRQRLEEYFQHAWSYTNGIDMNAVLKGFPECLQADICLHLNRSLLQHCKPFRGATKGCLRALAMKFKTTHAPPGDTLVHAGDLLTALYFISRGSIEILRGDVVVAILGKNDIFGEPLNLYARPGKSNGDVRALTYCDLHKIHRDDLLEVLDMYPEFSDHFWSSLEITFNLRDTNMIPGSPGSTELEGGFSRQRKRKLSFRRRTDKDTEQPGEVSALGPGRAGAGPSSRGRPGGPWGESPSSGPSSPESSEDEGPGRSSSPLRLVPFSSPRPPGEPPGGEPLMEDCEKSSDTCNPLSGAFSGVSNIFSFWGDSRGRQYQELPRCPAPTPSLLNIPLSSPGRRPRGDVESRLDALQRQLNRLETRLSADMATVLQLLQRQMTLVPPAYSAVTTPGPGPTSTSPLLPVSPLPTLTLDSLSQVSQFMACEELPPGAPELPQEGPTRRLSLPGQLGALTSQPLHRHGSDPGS
Excerpt: For the purpose of risk assessment for QT prolongation on an electrocardiogram, the action on delayed rectifier K+ current (IKr) which plays an important role on a process of ventricular repolarization was studied using a HEK293 cell with a human ether-a-go-go related gene (hERG) channel expressed therein. A cell was maintained at a membrane potential of −80 mV, and then +40 mV of a depolarizing stimulus was applied to the cell for 2 seconds and further −50 mV of a repolarizing stimulus was applied thereto for 2 seconds by a whole-cell patch clamp technique with a fully-automatic patch clamp system (PatchXpress 7000A, Axon Instruments Inc.), and the induced IKr was recorded. […] The absolute value of the maximum tail current was determined from the obtained IKr with an analysis software (DataXpress ver. 1, Molecular Devices Corporation) based on a current value at a maintained membrane potential. Further, an inhibitory percentage relative to the maximum tail current before application of the test compound was calculated, and influence of the test compound on IKr was evaluated in comparison with the medium application group (0.1% dimethyl sulfoxide solution). […]

What does the source list for `COCCOc1cnc(C(=O)Nc2cccc(C3(C)CC(=O)N(C)C(N)=N3)c2)cn1` (stereo not shown) [Compound 40]?
IC50 [1]: 0.9 nM; IC50 difference without vs with pre-reaction (CYP3A4): ≤ 3000 nM; IC50 (Recombinant human BACE-1): 14 nM; inhibition at 10 min, 5 µM (hERG (IKr)): 4.1%
